# Data taken from paper PMC11760385, “Differential GTP-dependent in-vitro polymerization of recombinant Physcomitrella FtsZ proteins” (Scientific Reports, 2025).
# Key:
# FtsZ1-2 = molecular target: T1, FtsZ1-2 (Physcomitrium patens, UniProt A9SRP3); experiment: malachite green phosphate release GTPase assay; type: biochemical; details: 1 mM GTP, 7.5 µM protein, 37.5 mM glycine pH 10, 100 mM KCl, 5 mM MgCl2, 5% glycerol, 25 °C, 10 min
# T1 construct: gene LOC112295762; lacks N-terminal transit peptide (86 aa, TargetP-2.0); N-terminal His6-SUMO tag cleaved with Ulp1; codon-optimised, expressed in E. coli NiCo; start 87 follows from the removed 86 aa
# FtsZ2-1 = molecular target: T2, FtsZ2-1 (Physcomitrium patens, UniProt O49922); experiment: malachite green phosphate release GTPase assay; type: biochemical; details: 1 mM GTP, 7.5 µM protein, 37.5 mM glycine pH 10, 100 mM KCl, 5 mM MgCl2, 5% glycerol, 25 °C, 10 min
# T2 construct: gene ftsZ 2-1; lacks N-terminal transit peptide (42 aa, TargetP-2.0); N-terminal His6-SUMO tag cleaved with Ulp1; codon-optimised, expressed in E. coli NiCo; start 43 follows from the removed 42 aa
# T2 sequence (O49922 entry or part of it): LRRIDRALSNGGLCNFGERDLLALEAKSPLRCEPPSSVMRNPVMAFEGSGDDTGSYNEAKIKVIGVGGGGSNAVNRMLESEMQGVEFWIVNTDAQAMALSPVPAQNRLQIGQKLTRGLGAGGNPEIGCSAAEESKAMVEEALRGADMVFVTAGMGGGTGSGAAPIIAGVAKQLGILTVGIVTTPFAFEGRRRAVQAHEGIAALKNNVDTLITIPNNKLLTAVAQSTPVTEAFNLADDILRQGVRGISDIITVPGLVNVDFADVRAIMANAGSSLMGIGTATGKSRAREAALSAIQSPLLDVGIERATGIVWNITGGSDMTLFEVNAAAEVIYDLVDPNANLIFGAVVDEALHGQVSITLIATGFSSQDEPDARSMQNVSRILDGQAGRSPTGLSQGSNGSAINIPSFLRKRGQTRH
# T1 sequence (A9SRP3 entry or part of it): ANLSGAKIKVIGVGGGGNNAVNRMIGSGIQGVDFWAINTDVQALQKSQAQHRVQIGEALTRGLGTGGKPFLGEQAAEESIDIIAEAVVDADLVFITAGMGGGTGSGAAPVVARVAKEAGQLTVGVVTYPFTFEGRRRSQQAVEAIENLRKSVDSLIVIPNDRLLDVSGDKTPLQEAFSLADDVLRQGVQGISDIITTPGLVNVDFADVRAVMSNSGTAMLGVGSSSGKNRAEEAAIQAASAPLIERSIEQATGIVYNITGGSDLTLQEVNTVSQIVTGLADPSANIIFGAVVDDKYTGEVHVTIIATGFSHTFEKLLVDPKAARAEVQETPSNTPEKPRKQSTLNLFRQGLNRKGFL
smiles,measurement,setting,value
Nc1nc2c(ncn2[C@@H]2O[C@H](COP(=O)(O)OP(=O)(O)OP(=O)(O)O)[C@@H](O)[C@H]2O)c(=O)[nH]1 [GTP],malachite green phosphate release GTPase assay,FtsZ1-2,Both FtsZ proteins exhibited low but significant GTPase activities.
same,malachite green phosphate release GTPase assay,FtsZ2-1,Both FtsZ proteins exhibited low but significant GTPase activities.
